Key:
Huh7 cells [1] = assay: Cellular ROS measurement (DCFH-DA); type: cell-based, human; details: 5, 10 and 20 μM, 24 h, Huh7, DCFH-DA staining
Experimental: Reactive oxygen species (ROS) play a crucial role in inducing cell death and inhibiting cell growth and proliferation. To investigate the impact of compounds 5e and 5p on ROS generation, various cancer cells were treated with 5e or 5p for 24 h. Subsequently, cells were stained with DCFDA [26], and ROS levels were visualized using a fluorescent microscope (Thermo, Beijing, China).
Huh7 cells were cultured in 96-well plates in a density of 5 × 10^3 cells/well. Different concentrations (0, 5, 10 and 20 μM) of 5e or 5p were added to cells, respectively, for 24 h. After treatment, cells were stimulated with 10 μM DCFH-DA for 30 min in 37 °C and then observed and photographed using the fluorescent microscope.

LC3 = assay: Western blot, LC3; type: cell-based, human; details: 2, 4, 8 μM, 48 h, Huh7, western blot
Experimental: (§1) To elucidate the impact of compounds 5e and 5p on the regulation of cell proliferation, we examined the expression levels of key proteins involved in cell growth processes, encompassing autophagy, apoptosis, cell cycle, and DNA damage (Figure 7).
(§2) Protein expression levels were measured by western blot. Huh7 cells were cultured in 12-well plates and different concentrations (0, 2, 4, 8 μM) of 5e and 5p were added for 48 h. Proteins were extracted from whole cells using radio-immunoprecipitation assay (RIPA) buffer containing a protease/phosphatase inhibitor cocktail (CST). Then, 10–15% sodium dodecyl sulfate polyacrylamide gel electrophoresis and nitrocellulose membranes (Millipore) were employed to separate and collect proteins. Antibodies used include LC3 (3868s, CST), Caspase3 (9662, CST), cyclin D (2922s, CST), cyclin E (20808s, CST), γH2AX (9718s, CST), β-Catenin (9562s, CST), and β-actin (4967s, CST).

Huh7 cells [2] = assay: Plate clone formation assay; type: cell-based, human; details: 0, 2, 4, 8, 16, 32 μM, 48 h
Experimental: (§3) To further assess the anti-proliferative activity of dolutegravir derivatives, LIVE/DEAD staining was conducted. Huh7 cells were treated with 5 μM or 10 μM of 5e and 5p for 24 h, followed by live and dead cell imaging and quantification. […] This may be attributed to significant cell proliferation suppression at 10 μM concentration, leading to a limited number of viable cells. Furthermore, to validate the impact of dolutegravir derivatives on cell proliferation, a plate clone formation assay was performed. Cells were exposed to various concentrations (0, 2, 4, 8, 16, and 32 μM) of 5e or 5p.
Huh7 cells were seeded into 6-well plates at a density of 100–500 cells/well. After 10 days culture, cells were added with 5e or 5p at different concentrations (0, 2 μM, 4 μM, 8 μM, 16 μM, 32 μM) for 48 h. Then, cells were fixed by 4% paraformaldehyde and stained by Giemsa dye. An optical microscope was used to photograph cells and the clone numbers were counted.

[3] = tested on: HRM cells (human renal mesangial cells); assay: in vitro; type: cell-based; details: 20 µM
Experimental: This study aimed to assess the anti-proliferative activity of dolutegravir-1,2,3-triazole derivatives on hepatocellular carcinoma cell lines, Huh7 and hepG2. A comprehensive CCK8 assay was employed to evaluate the impact of these compounds on cell viability, with cells treated at a concentration of 20 μM for 48 h. HRM cells, a normal cell line, were included as a control for comparative analysis. […]
(§4) CCK8 assay was used to measure cell viability. Cells with a density of 1 × 10^4 cells/well were seeded on 96-well plates. After adhesion, cells were treated with different diluted compounds or vehicle control DMSO and continued to be cultured for 48 h or 72 h, respectively. Then, CCK8 reagent was added for one hour incubation at 37 °C with 5% CO2. Absorbance was measured using a Microplate spectrophotometer (Thermo, Waltham, MA, USA) at 450 nm. The ratio of cell viability of control was taken as 100%. […] Then, IC50 of compounds were investigated using the prism statistical software 7.0.

γ-H2AX = assay: Western blot, γ-H2AX; type: cell-based, human; details: 2, 4, 8 μM, 48 h, Huh7, western blot
Experimental: as §1, §2

Huh7 cells [4] = assay: CCK8 cell viability assay, Huh7; type: cell-based, human
Experimental: (§5) This study aimed to assess the anti-proliferative activity of dolutegravir-1,2,3-triazole derivatives on hepatocellular carcinoma cell lines, Huh7 and hepG2. A comprehensive CCK8 assay was employed to evaluate the impact of these compounds on cell viability, with cells treated at a concentration of 20 μM for 48 h. HRM cells, a normal cell line, were included as a control for comparative analysis.
(§6) Human hepatocellular carcinoma cell lines Huh7 and hepG2 were obtained from ATCC (Manassas, VA, USA). Cells were cultured in DMEM or RPMI 1640 medium containing 10% FBS and 1% penicillin/streptomycin at 37 °C with a 5% CO2-humidified atmosphere.
as §4

Huh7 cells [5] = assay: LIVE/DEAD staining (live and dead cell measurement); type: cell-based, human; details: 5 μM or 10 μM, 24 h
Experimental: as §3
Huh7 cells with a density of 5 × 10^3 cells/well were seeded on 96-well plates. Then, different concentrations (0, 5 μM, 10 μM) of 5e or 5p were treated for 24 h. Cells were then stained with the LIVE/DEAD Assay Kit, observed and photographed using the fluorescent microscope.

hepG2 cells = assay: CCK8 cell viability assay, hepG2; type: cell-based, human
Experimental: as §5, §6, §4

Caspase3 = assay: Western blot, Caspase3; type: cell-based, human; details: 2, 4, 8 μM, 48 h, Huh7, western blot
Experimental: as §1, §2

Huh7 cells [6] = assay: Apoptosis assay, Annexin V-FITC/PI flow cytometry; type: cell-based, human; details: 48 h
Experimental: Given the observed inhibitory effects of compounds 5e and 5p on cancer cell proliferation, we further investigated their impact on cell apoptosis. Apoptosis analysis was conducted on Huh7 cells treated with varying concentrations of 5e or 5p, utilizing Annexin V-FITC and PI staining, followed by flow cytometry to quantify apoptotic cells.
Huh7 cells were cultured in 6-well plates with a density of 3 × 10^5 cells/well. Different concentrations of 5e or 5p were added to cells for 48 h, respectively. The concentrations were 0, 2, 4, and 8 μM for Huh7 cells. After treatment, Annexin V-FITC Apoptosis Detection Kit (Elabscience, Wuhan, China) was used to determine the apoptotic ratio and FlowJo software v10 was used to analyze.

`COc1c2n(cc(C(=O)Nc3cccc(-c4cn(-c5cccc(C(F)(F)F)c5)nn4)c3)c1=O)CC1OCCC(C)N1C2=O` (stereo not drawn) [Compound 5p] was tested, and the ROS generation (Huh7 cells [1]) was “significant increase in ROS generation”, the LC3 protein expression (LC3) was “significant increase in expression” and the plate clone formation (Huh7 cells [2]) was “dose-dependent anti-proliferative activity”. The “Cell Viability (100%), 20 μM, 48 h, HRM” value [3] was 16.33%, the “γ-H2AX protein expression (DNA damage)” value (γ-H2AX) was “induction of γ-H2AX” and the “Cell Viability (100%), 20 μM, 48 h, Huh7” value (Huh7 cells [4]; 20 μM, Huh7, CCK8, control taken as 100%) was 5.93%. The IC50 (Huh7 cells [4]; 48 h, Huh7, CCK8, read-out: half maximal inhibitory concentration (IC50), Huh7) was 5.42 ± 0.43 µM, the “live Huh7 cells (LIVE/DEAD staining)” value (Huh7 cells [5]) was “decreased with increasing concentration” and the “ratio of dead to live cells” value (Huh7 cells [5]) was “increased compared to the untreated group”. The “Cell Viability (100%), 20 μM, 48 h, hepG2” value (hepG2 cells; 20 μM, hepG2, CCK8, control taken as 100%) was 30.66%, the IC50 (hepG2 cells; 48 h, hepG2, CCK8, read-out: half maximal inhibitory concentration (IC50), hepG2) was 4.83 ± 1.17 µM and the Caspase3 protein expression (Caspase3) was “remained unchanged”. The “apoptosis in Huh7 cells” value (Huh7 cells [6]; 2 μM) was “no significant impact”, the “apoptosis in Huh7 cells” value (Huh7 cells [6]; 4 μM) was “remarkable apoptosis” and the “apoptosis in Huh7 cells” value (Huh7 cells [6]; 8 μM) was “remarkable apoptosis”.

From article PMC11052077, “Discovery of Dolutegravir Derivative against Liver Cancer via Inducing Autophagy and DNA Damage” (Molecules, 2024)
